Laboratory results taken from ChEMBL document CHEMBL5444388, “Affinity Phenotypic Cellular Literature for EUbOPEN Chemogenomic Library” (2024).

Legend:
Type in all cases: functional, cell-based
Design in all cases: recommended concentration 100 nM
[1] = molecular target: Centromere-associated protein E (Homo sapiens) (UniProt Q02224); assay: Affinity Phenotypic Cellular interaction: (Cell-growth inhibition assays (growth inhibitory effect colon cancer cell line RPMI6666)) EUB0000734a CENPE; conditions: RPMI-6666, Affinity Phenotypic Cellular Source Knowledge https://pubmed.ncbi.nlm.nih.gov/20167803/
Sequence of Centromere-associated protein E (Homo sapiens) (Q02224 whole entry): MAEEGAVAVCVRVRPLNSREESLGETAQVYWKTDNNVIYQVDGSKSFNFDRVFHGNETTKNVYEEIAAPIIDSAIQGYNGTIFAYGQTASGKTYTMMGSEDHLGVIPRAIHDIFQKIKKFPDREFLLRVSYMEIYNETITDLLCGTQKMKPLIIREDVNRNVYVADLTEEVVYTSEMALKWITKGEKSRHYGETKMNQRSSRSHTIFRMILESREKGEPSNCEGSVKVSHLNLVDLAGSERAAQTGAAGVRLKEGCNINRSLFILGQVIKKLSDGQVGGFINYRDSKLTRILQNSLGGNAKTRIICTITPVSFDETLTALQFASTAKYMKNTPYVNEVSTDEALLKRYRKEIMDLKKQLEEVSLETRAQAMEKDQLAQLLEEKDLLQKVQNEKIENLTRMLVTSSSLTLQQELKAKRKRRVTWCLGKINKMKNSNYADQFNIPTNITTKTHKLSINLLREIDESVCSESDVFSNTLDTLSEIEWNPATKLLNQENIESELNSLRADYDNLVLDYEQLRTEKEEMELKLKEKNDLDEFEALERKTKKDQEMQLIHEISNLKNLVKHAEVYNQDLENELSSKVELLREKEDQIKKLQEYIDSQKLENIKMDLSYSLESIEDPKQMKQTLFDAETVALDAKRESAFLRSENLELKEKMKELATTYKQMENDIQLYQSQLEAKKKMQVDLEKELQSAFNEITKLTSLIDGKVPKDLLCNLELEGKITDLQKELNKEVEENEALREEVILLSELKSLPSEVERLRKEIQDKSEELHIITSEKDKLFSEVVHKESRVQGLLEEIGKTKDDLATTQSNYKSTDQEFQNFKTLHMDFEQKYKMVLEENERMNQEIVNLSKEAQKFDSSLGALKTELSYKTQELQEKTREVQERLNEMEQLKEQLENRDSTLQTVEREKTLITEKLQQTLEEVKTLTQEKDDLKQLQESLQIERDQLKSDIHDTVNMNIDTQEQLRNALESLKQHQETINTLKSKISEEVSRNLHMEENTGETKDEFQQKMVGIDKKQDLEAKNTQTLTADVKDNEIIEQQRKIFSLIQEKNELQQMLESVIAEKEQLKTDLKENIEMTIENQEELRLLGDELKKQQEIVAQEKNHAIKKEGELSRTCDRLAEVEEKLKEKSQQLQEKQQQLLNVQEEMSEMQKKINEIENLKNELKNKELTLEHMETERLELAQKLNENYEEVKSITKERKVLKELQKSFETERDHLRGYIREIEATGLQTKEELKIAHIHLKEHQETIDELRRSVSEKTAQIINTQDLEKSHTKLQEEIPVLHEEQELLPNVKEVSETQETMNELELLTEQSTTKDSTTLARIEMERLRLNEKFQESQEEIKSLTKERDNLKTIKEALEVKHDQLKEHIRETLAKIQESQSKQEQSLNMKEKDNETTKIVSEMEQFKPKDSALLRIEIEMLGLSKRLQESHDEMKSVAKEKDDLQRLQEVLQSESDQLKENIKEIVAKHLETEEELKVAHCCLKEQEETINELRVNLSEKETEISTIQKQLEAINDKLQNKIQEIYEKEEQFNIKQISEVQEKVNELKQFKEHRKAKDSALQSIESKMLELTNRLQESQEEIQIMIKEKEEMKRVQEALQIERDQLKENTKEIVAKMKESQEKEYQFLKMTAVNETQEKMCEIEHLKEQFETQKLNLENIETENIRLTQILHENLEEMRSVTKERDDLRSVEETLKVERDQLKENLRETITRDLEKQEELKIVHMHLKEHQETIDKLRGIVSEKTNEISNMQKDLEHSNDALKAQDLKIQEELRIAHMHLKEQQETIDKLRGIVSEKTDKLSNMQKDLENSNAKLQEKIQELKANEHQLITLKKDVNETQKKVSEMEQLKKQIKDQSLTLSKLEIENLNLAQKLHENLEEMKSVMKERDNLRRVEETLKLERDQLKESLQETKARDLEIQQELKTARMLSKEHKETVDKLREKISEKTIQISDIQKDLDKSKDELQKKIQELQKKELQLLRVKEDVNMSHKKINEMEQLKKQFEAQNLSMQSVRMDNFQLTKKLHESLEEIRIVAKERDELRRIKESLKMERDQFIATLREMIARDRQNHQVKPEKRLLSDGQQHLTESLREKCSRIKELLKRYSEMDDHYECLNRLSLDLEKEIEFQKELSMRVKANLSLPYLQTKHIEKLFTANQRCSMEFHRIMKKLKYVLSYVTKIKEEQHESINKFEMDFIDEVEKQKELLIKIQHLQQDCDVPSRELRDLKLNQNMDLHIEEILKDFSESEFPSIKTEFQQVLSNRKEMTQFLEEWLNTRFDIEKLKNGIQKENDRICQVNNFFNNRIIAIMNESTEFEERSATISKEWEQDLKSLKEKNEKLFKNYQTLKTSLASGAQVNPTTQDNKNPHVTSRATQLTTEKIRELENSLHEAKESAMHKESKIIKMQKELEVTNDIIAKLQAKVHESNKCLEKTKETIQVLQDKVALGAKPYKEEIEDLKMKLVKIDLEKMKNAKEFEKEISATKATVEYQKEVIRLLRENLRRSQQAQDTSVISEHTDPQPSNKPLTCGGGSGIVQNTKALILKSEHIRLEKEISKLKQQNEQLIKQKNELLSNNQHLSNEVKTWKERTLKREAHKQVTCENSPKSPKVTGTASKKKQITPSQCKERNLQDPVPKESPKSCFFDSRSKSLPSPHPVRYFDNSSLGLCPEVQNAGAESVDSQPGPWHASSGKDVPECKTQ

[2] = molecular target: Centromere-associated protein E (Homo sapiens) (UniProt Q02224); assay: Affinity Phenotypic Cellular interaction: (Cell-growth inhibition assays (growth inhibitory effect colon cancer cell line DoTc2-4510)) EUB0000734a CENPE; conditions: Affinity Phenotypic Cellular Source Knowledge https://pubmed.ncbi.nlm.nih.gov/20167803/
[3] = molecular target: Centromere-associated protein E (Homo sapiens) (UniProt Q02224); assay: Affinity Phenotypic Cellular interaction: (Cell-growth inhibition assays (growth inhibitory effect colon cancer cell line NCI-H2171)) EUB0000734a CENPE; conditions: Affinity Phenotypic Cellular Source Knowledge https://pubmed.ncbi.nlm.nih.gov/20167803/
[4] = molecular target: Centromere-associated protein E (Homo sapiens) (UniProt Q02224); assay: Affinity Phenotypic Cellular interaction: (Cell-growth inhibition assays (growth inhibitory effect breast cancer cell line MT-3)) EUB0000734a CENPE; conditions: Affinity Phenotypic Cellular Source Knowledge https://pubmed.ncbi.nlm.nih.gov/20167803/
[5] = molecular target: Centromere-associated protein E (Homo sapiens) (UniProt Q02224); assay: Affinity Phenotypic Cellular interaction: (Cell-growth inhibition assays (growth inhibitory effect colon cancer cell line SW-872)) EUB0000734a CENPE; conditions: SW872, Affinity Phenotypic Cellular Source Knowledge https://pubmed.ncbi.nlm.nih.gov/20167803/
[6] = molecular target: Centromere-associated protein E (Homo sapiens) (UniProt Q02224); assay: Affinity Phenotypic Cellular interaction: (Cell-growth inhibition assays (growth inhibitory effect colon cancer cell line SW1463)) EUB0000734a CENPE; conditions: Affinity Phenotypic Cellular Source Knowledge https://pubmed.ncbi.nlm.nih.gov/20167803/
[7] = molecular target: Centromere-associated protein E (Homo sapiens) (UniProt Q02224); assay: Affinity Phenotypic Cellular interaction: (Cell-growth inhibition assays (growth inhibitory effect colon cancer cell line SNU-449)) EUB0000734a CENPE; conditions: Affinity Phenotypic Cellular Source Knowledge https://pubmed.ncbi.nlm.nih.gov/20167803/
[8] = molecular target: Centromere-associated protein E (Homo sapiens) (UniProt Q02224); assay: Affinity Phenotypic Cellular interaction: (Cell-growth inhibition assays (growth inhibitory effect colon cancer cell line SW1088)) EUB0000734a CENPE; conditions: Affinity Phenotypic Cellular Source Knowledge https://pubmed.ncbi.nlm.nih.gov/20167803/
[9] = molecular target: Centromere-associated protein E (Homo sapiens) (UniProt Q02224); assay: Affinity Phenotypic Cellular interaction: (Cell-growth inhibition assays (growth inhibitory effect colon cancer cell line HCT-8)) EUB0000734a CENPE; conditions: Affinity Phenotypic Cellular Source Knowledge https://pubmed.ncbi.nlm.nih.gov/20167803/
[10] = molecular target: Centromere-associated protein E (Homo sapiens) (UniProt Q02224); assay: Affinity Phenotypic Cellular interaction: (Cell-growth inhibition assays (growth inhibitory effect colon cancer cell line SNB-75)) EUB0000734a CENPE; conditions: Affinity Phenotypic Cellular Source Knowledge https://pubmed.ncbi.nlm.nih.gov/20167803/
[11] = molecular target: Centromere-associated protein E (Homo sapiens) (UniProt Q02224); assay: Affinity Phenotypic Cellular interaction: (Cell-growth inhibition assays (growth inhibitory effect colon cancer cell line HN5)) EUB0000734a CENPE; conditions: Affinity Phenotypic Cellular Source Knowledge https://pubmed.ncbi.nlm.nih.gov/20167803/
[12] = molecular target: Centromere-associated protein E (Homo sapiens) (UniProt Q02224); assay: Affinity Phenotypic Cellular interaction: (Cell-growth inhibition assays (growth inhibitory effect colon cancer cell line T24)) EUB0000734a CENPE; conditions: T-24, Affinity Phenotypic Cellular Source Knowledge https://pubmed.ncbi.nlm.nih.gov/20167803/
[13] = molecular target: Centromere-associated protein E (Homo sapiens) (UniProt Q02224); assay: Affinity Phenotypic Cellular interaction: (Cell-growth inhibition assays (growth inhibitory effect colon cancer cell line A673)) EUB0000734a CENPE; conditions: Affinity Phenotypic Cellular Source Knowledge https://pubmed.ncbi.nlm.nih.gov/20167803/
[14] = molecular target: Centromere-associated protein E (Homo sapiens) (UniProt Q02224); assay: Affinity Phenotypic Cellular interaction: (Cell-growth inhibition assays (growth inhibitory effect colon cancer cell line HEC-1-A)) EUB0000734a CENPE; conditions: Affinity Phenotypic Cellular Source Knowledge https://pubmed.ncbi.nlm.nih.gov/20167803/
[15] = molecular target: Centromere-associated protein E (Homo sapiens) (UniProt Q02224); assay: Affinity Phenotypic Cellular interaction: (Cell-growth inhibition assays (growth inhibitory effect colon cancer cell line SW480)) EUB0000734a CENPE; conditions: Affinity Phenotypic Cellular Source Knowledge https://pubmed.ncbi.nlm.nih.gov/20167803/
[16] = molecular target: Centromere-associated protein E (Homo sapiens) (UniProt Q02224); assay: Affinity Phenotypic Cellular interaction: (Cell-growth inhibition assays (growth inhibitory effect colon cancer cell line 22Rv1)) EUB0000734a CENPE; conditions: CWR22R, Affinity Phenotypic Cellular Source Knowledge https://pubmed.ncbi.nlm.nih.gov/20167803/
[17] = molecular target: Centromere-associated protein E (Homo sapiens) (UniProt Q02224); assay: Affinity Phenotypic Cellular interaction: (Cell-growth inhibition assays (growth inhibitory effect colon cancer cell line SW837)) EUB0000734a CENPE; conditions: Affinity Phenotypic Cellular Source Knowledge https://pubmed.ncbi.nlm.nih.gov/20167803/
[18] = molecular target: Centromere-associated protein E (Homo sapiens) (UniProt Q02224); assay: Affinity Phenotypic Cellular interaction: (Cell-growth inhibition assays (growth inhibitory effect colon cancer cell line TK-10)) EUB0000734a CENPE; conditions: Affinity Phenotypic Cellular Source Knowledge https://pubmed.ncbi.nlm.nih.gov/20167803/
[19] = molecular target: Centromere-associated protein E (Homo sapiens) (UniProt Q02224); assay: Affinity Phenotypic Cellular interaction: (Cell-growth inhibition assays (growth inhibitory effect colon cancer cell line A2780)) EUB0000734a CENPE; conditions: Affinity Phenotypic Cellular Source Knowledge https://pubmed.ncbi.nlm.nih.gov/20167803/
[20] = molecular target: Centromere-associated protein E (Homo sapiens) (UniProt Q02224); assay: Affinity Phenotypic Cellular interaction: (Cell-growth inhibition assays (growth inhibitory effect colon cancer cell line EFM-19)) EUB0000734a CENPE; conditions: Affinity Phenotypic Cellular Source Knowledge https://pubmed.ncbi.nlm.nih.gov/20167803/
[21] = molecular target: Centromere-associated protein E (Homo sapiens) (UniProt Q02224); assay: Affinity Phenotypic Cellular interaction: (Cell-growth inhibition assays (growth inhibitory effect colon cancer cell line OVCAR-3)) EUB0000734a CENPE; conditions: Affinity Phenotypic Cellular Source Knowledge https://pubmed.ncbi.nlm.nih.gov/20167803/
[22] = molecular target: Centromere-associated protein E (Homo sapiens) (UniProt Q02224); assay: Affinity Phenotypic Cellular interaction: (Cell-growth inhibition assays (growth inhibitory effect colon cancer cell line HCC1143)) EUB0000734a CENPE; conditions: Affinity Phenotypic Cellular Source Knowledge https://pubmed.ncbi.nlm.nih.gov/20167803/
[23] = molecular target: Centromere-associated protein E (Homo sapiens) (UniProt Q02224); assay: Affinity Phenotypic Cellular interaction: (Cell-growth inhibition assays (growth inhibitory effect colon cancer cell line BV-173)) EUB0000734a CENPE; conditions: Affinity Phenotypic Cellular Source Knowledge https://pubmed.ncbi.nlm.nih.gov/20167803/
[24] = molecular target: Centromere-associated protein E (Homo sapiens) (UniProt Q02224); assay: Affinity Phenotypic Cellular interaction: (Cell-growth inhibition assays (growth inhibitory effect colon cancer cell line HT-29)) EUB0000734a CENPE; conditions: Affinity Phenotypic Cellular Source Knowledge https://pubmed.ncbi.nlm.nih.gov/20167803/
[25] = molecular target: Centromere-associated protein E (Homo sapiens) (UniProt Q02224); assay: Affinity Phenotypic Cellular interaction: (Cell-growth inhibition assays (growth inhibitory effect colon cancer cell line OV-90)) EUB0000734a CENPE; conditions: Affinity Phenotypic Cellular Source Knowledge https://pubmed.ncbi.nlm.nih.gov/20167803/
[26] = molecular target: Centromere-associated protein E (Homo sapiens) (UniProt Q02224); assay: Affinity Phenotypic Cellular interaction: (Cell-growth inhibition assays (growth inhibitory effect colon cancer cell line MDA-MB-435)) EUB0000734a CENPE; conditions: Affinity Phenotypic Cellular Source Knowledge https://pubmed.ncbi.nlm.nih.gov/20167803/
[27] = molecular target: Centromere-associated protein E (Homo sapiens) (UniProt Q02224); assay: Affinity Phenotypic Cellular interaction: (Cell-growth inhibition assays (growth inhibitory effect colon cancer cell line NCI-H292)) EUB0000734a CENPE; conditions: Affinity Phenotypic Cellular Source Knowledge https://pubmed.ncbi.nlm.nih.gov/20167803/
[28] = molecular target: Centromere-associated protein E (Homo sapiens) (UniProt Q02224); assay: Affinity Phenotypic Cellular interaction: (Cell-growth inhibition assays (growth inhibitory effect colon cancer cell line A549)) EUB0000734a CENPE; conditions: Affinity Phenotypic Cellular Source Knowledge https://pubmed.ncbi.nlm.nih.gov/20167803/
[29] = molecular target: Centromere-associated protein E (Homo sapiens) (UniProt Q02224); assay: Affinity Phenotypic Cellular interaction: (Cell-growth inhibition assays (growth inhibitory effect colon cancer cell line PC-3)) EUB0000734a CENPE; conditions: Affinity Phenotypic Cellular Source Knowledge https://pubmed.ncbi.nlm.nih.gov/20167803/
[30] = molecular target: Centromere-associated protein E (Homo sapiens) (UniProt Q02224); assay: Affinity Phenotypic Cellular interaction: (Cell-growth inhibition assays (growth inhibitory effect colon cancer cell line MOLT-16)) EUB0000734a CENPE; conditions: Affinity Phenotypic Cellular Source Knowledge https://pubmed.ncbi.nlm.nih.gov/20167803/
[31] = molecular target: Centromere-associated protein E (Homo sapiens) (UniProt Q02224); assay: Affinity Phenotypic Cellular interaction: (Cell-growth inhibition assays (growth inhibitory effect colon cancer cell line RL)) EUB0000734a CENPE; conditions: Affinity Phenotypic Cellular Source Knowledge https://pubmed.ncbi.nlm.nih.gov/20167803/
[32] = molecular target: Centromere-associated protein E (Homo sapiens) (UniProt Q02224); assay: Affinity Phenotypic Cellular interaction: (Cell-growth inhibition assays (growth inhibitory effect colon cancer cell line SK-NEP-1)) EUB0000734a CENPE; conditions: Affinity Phenotypic Cellular Source Knowledge https://pubmed.ncbi.nlm.nih.gov/20167803/
[33] = molecular target: Centromere-associated protein E (Homo sapiens) (UniProt Q02224); assay: Affinity Phenotypic Cellular interaction: (Cell-growth inhibition assays (growth inhibitory effect colon cancer cell line CESS)) EUB0000734a CENPE; conditions: Affinity Phenotypic Cellular Source Knowledge https://pubmed.ncbi.nlm.nih.gov/20167803/
[34] = molecular target: Centromere-associated protein E (Homo sapiens) (UniProt Q02224); assay: Affinity Phenotypic Cellular interaction: (Cell-growth inhibition assays (growth inhibitory effect colon cancer cell line SNB-19)) EUB0000734a CENPE; conditions: Affinity Phenotypic Cellular Source Knowledge https://pubmed.ncbi.nlm.nih.gov/20167803/
[35] = molecular target: Centromere-associated protein E (Homo sapiens) (UniProt Q02224); assay: Affinity Phenotypic Cellular interaction: (Cell-growth inhibition assays (growth inhibitory effect colon cancer cell line SF-295)) EUB0000734a CENPE; conditions: Affinity Phenotypic Cellular Source Knowledge https://pubmed.ncbi.nlm.nih.gov/20167803/
[36] = molecular target: Centromere-associated protein E (Homo sapiens) (UniProt Q02224); assay: Affinity Phenotypic Cellular interaction: (Cell-growth inhibition assays (growth inhibitory effect colon cancer cell line SCC-4)) EUB0000734a CENPE; conditions: Affinity Phenotypic Cellular Source Knowledge https://pubmed.ncbi.nlm.nih.gov/20167803/
[37] = molecular target: Centromere-associated protein E (Homo sapiens) (UniProt Q02224); assay: Affinity Phenotypic Cellular interaction: (Cell-growth inhibition assays (growth inhibitory effect colon cancer cell line Raji)) EUB0000734a CENPE; conditions: Affinity Phenotypic Cellular Source Knowledge https://pubmed.ncbi.nlm.nih.gov/20167803/
[38] = molecular target: Centromere-associated protein E (Homo sapiens) (UniProt Q02224); assay: Affinity Phenotypic Cellular interaction: (Cell-growth inhibition assays (growth inhibitory effect colon cancer cell line HEC-1-B)) EUB0000734a CENPE; conditions: Affinity Phenotypic Cellular Source Knowledge https://pubmed.ncbi.nlm.nih.gov/20167803/
[39] = molecular target: Centromere-associated protein E (Homo sapiens) (UniProt Q02224); assay: Affinity Phenotypic Cellular interaction: (Cell-growth inhibition assays (growth inhibitory effect colon cancer cell line SW756)) EUB0000734a CENPE; conditions: Affinity Phenotypic Cellular Source Knowledge https://pubmed.ncbi.nlm.nih.gov/20167803/

Q: What does the source list for `CC(C)Oc1ccc(C(=O)N[C@H](CNC(=O)CN(C)C)Cc2ccc(-c3cn4cccc([C@H](C)O)c4n3)cc2)cc1Cl`?
A: GIC50 [1]: 88 nM; GIC50 [2]: 33 nM; GIC50 [3]: 24 nM; GIC50 [4]: 41 nM; GIC50 [5]: 37 nM; GIC50 [6]: 31 nM; GIC50 [7]: 236 nM; GIC50 [8]: 32 nM; GIC50 [9]: 35 nM; GIC50 [10]: 26 nM; GIC50 [11]: 118 nM; GIC50 [12]: 45 nM; GIC50 [13]: 23 nM; GIC50 [14]: 50 nM; GIC50 [15]: 33 nM; GIC50 [16]: 29 nM; GIC50 [17]: 33 nM; GIC50 [18]: 49 nM; GIC50 [19]: 13 nM; GIC50 [20]: 28 nM; GIC50 [21]: 42 nM; GIC50 [22]: 27 nM; GIC50 [23]: 56 nM; GIC50 [24]: 14 nM; GIC50 [25]: 61 nM; GIC50 [26]: 30 nM; GIC50 [27]: 31 nM; GIC50 [28]: 21 nM; GIC50 [29]: 28 nM; GIC50 [30]: 47 nM; GIC50 [31]: 37 nM; GIC50 [32]: 55 nM; GIC50 [33]: 19 nM; GIC50 [34]: 28 nM; GIC50 [35]: 35 nM; GIC50 [36]: 28 nM; GIC50 [37]: 41 nM; GIC50 [38]: 28 nM; GIC50 [39]: 35 nM
